Consider 14 compounds from patent US9469615B2, “Quinoxalines and AZA-quinoxalines as CRTH2 receptor modulators” (Merck Sharp & Dohme Corp., priority 2010, dated 2016).

In the test the target is T1, hCRTH2 (Homo sapiens, UniProt Q9Y5Y4).
T1 construct: expressed in transfected cells; host or cells: HEK (human embryonic kidney) cells expressing hCRTH2; membrane preparation
T1 sequence (Q9Y5Y4 1-395): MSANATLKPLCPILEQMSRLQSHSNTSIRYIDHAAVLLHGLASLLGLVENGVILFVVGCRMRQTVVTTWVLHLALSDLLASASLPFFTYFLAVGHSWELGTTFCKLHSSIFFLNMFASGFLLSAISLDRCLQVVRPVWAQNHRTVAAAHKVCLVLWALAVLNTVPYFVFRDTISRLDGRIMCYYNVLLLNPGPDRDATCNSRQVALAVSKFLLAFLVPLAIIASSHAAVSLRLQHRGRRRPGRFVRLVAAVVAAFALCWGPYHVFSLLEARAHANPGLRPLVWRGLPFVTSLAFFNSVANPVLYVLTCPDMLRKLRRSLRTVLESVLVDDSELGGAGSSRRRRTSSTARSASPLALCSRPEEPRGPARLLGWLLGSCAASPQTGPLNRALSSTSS
The experiment in a line: Radioligand binding assay ([3H]PGD2 competition, HEK-hCRTH2 membranes). The gist of the method:
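HEK-hCRTH2 membranes, 8-20 μg; [3H]PGD2 3.0 nM; 50 mM Tris-HCl pH 7.4/1 mM EDTA/2 mM MnCl2; DMSO 1%; 60 min RT; NSB 10 μM PGD2; filtration, scintillation counting.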

Setting [1] is: [3H]PGD2 binding, rated A-E (Table A).

One may read the Ki as the dissociation constant of the complex between target and ligand, obtained from inhibition or displacement. `C[C@@H]1CN(c2ccccc2)CCN1C(=O)c1ccc2nc(-c3ccccc3)c(CCCCC(=O)O)nc2c1` [compound 41, (R)-5-(7-(2-methyl-4-phenylpiperazine-1-carbonyl)-3-phenylquinoxalin-2-yl)pentanoic acid]: the Ki under setting [1] lay in the range of 2.1 to 20 nM and affinity ([3H]PGD2 binding, values in text) was put at a Ki of 8.8 nM. For the compound `O=C(O)CCCCc1nc2cc(C(=O)N3CCc4c([nH]c5ccccc45)C3)ccc2nc1-c1ccc(Cl)cc1` [compound 608, 5-(3-(4-chlorophenyl)-7-(2,3,4,9-tetrahydro-1H-pyrido[3,4-b]indole-2-carbonyl)quinoxalin-2-yl)pentanoic acid], the Ki ([3H]PGD2 competition, Table B) lay in the range of 2.1 to 20 nM.

Take `Cc1ccc([C@@H](C)NC(=O)c2ccc3nc(-c4ccccc4)c(CCCCC(=O)O)nc3c2)cc1` [15AY, 5-(7-{[(1R)-1-(4-methylphenyl)ethyl]carbamoyl}-3-phenyl-quinoxalin-2-yl)pentanoic acid]: the Ki under setting [1] is 2.1 to 20 nM.

Where the note is “[3H]PGD2 competition, Table B”, `O=C(O)CCCCc1nc2cc(C(=O)N[C@H]3CCCc4cccnc43)ccc2nc1-c1ccccc1` [compound 371, (S)-8-(3-(4-carboxybutyl)-2-phenylquinoxaline-6-carboxamido)-5,6,7,8-tetrahydroquinolin-1-ium 2,2,2-trifluoroacetic acid] gave a Ki of 2.1 to 20 nM.

As to `C[C@H](NC(=O)c1ccc2nc(-c3ccc(F)cc3)c(CCC[C@H](C)C(=O)O)nc2c1)c1ccc(F)cc1` [compound 485, (S)-5-(3-(4-fluorophenyl)-7-(((S)-1-(4-fluorophenyl)ethyl)carbamoyl)quinoxalin-2-yl)-2-methylpentanoic acid], the Ki ([3H]PGD2 competition, Table B) is 2.1 to 20 nM. Same read-out and setting: the value for `CC(CCCc1nc2cc(C(=O)N[C@@H]3CCCc4ccccc43)ccc2nc1-c1ccc(F)cc1)C(=O)O` (stereo partly drawn) [compound 454] was 2.1 to 20 nM. In turn, `COC(=O)c1ccc2nc(-c3ccccc3)c(CCCCC(=O)O)nc2c1` [6H, 7-(methoxycarbonyl)-3-phenyl-2-quinoxalinepentanoic acid] returned an inhibitory constant (Ki) under setting [1] of 2.1 to 20 nM. Take `CC(CCCc1nc2cc(C(=O)N[C@@H](C)c3ccc(Cl)cc3)ccc2nc1-c1ccc(F)cc1)C(=O)O` (stereo partly drawn) [compound 428, 5-(7-(((S)-1-(4-chlorophenyl)ethyl)carbamoyl)-3-3-(4-fluorophenyl)quinoxalin-2-yl)-2-methylpentanoic acid]: the Ki ([3H]PGD2 competition, Table B) lay in the range of 20.1 to 200 nM. The compound `CCN1CCN(C(=O)c2ccc3nc(-c4ccccc4)c(CCCCC(=O)O)nc3c2)CC1` [15L, 5-{7-[(4-ethylpiperazin-1-yl)carbonyl]-3-phenylquinoxalin-2-yl}pentanoic acid] had an inhibitory constant (Ki) under setting [1] of 20.1 to 200 nM. Still for that read-out and setting: as for `O=C(O)CCCNc1nc2cc(C(=O)N[C@@H]3CCCc4ccccc43)ccc2nc1-c1ccccc1` [44i, (R)-4-((3-phenyl-7-((1,2,3,4-tetrahydronaphthalen-1-yl)carbamoyl)quinoxalin-2-yl)amino)butanoic acid], the figure is 0.1 to 2 nM. The same measure, in the same setting: as for `O=C(O)CCCCc1nc2cc(C(=O)N3CCC(c4ccccc4)CC3)ccc2nc1-c1cccnc1` [26M, 7-[(4-phenyl-1-piperidinyl)carbonyl]-3-(3-pyridinyl)-2-quinoxalinepentanoic acid], the figure is 2.1 to 20 nM.

As to `C[C@@H](NC(=O)c1ccc2nc(-c3ccc(F)cc3)c(CCCC(F)(F)C(=O)O)nc2c1)c1ccc(Cl)cc1` [compound 527, (R)-5-(7-((1-(4-chlorophenyl)ethyl)carbamoyl)-3-(4-fluorophenyl)quinoxalin-2-yl)-2,2-difluoropentanoic acid], where the note is “[3H]PGD2 competition, Table B”, the Ki is 2.1 to 20 nM. Same read-out and setting: as for `Cc1cc(N2CCN(C(=O)c3ccc4nc(-c5ccc(Cl)cc5)c(CCCCC(=O)O)nc4c3)CC2)sn1` [compound 684, 5-(3-(4-chlorophenyl)-7-(4-(3-methylisothiazol-5-yl)piperazine-1-carbonyl)quinoxalin-2-yl)pentanoic acid], the figure is 2.1 to 20 nM.

In the case of `C[C@@H](NC(=O)c1ccc2nc(-c3ccc(Cl)cc3)c(CCCCC(=O)O)nc2c1)c1ccc(Cl)cc1` [16AD, 3-(4-chlorophenyl)-7-[[[(R)-(4-chlorophenyl)ethyl]amino]carbonyl]-2-quinoxalinepentanoic acid], the Ki under setting [1] lay within 0.1 to 2 nM.
